# Source: patent US20260083731A1, “METHODS OF TREATING UVEAL MELANOMA WITH A PKC INHIBITOR” (IDEAYA BIOSCIENCES, INC., priority 2022, published 2026)
# Columns and labels:
# [1] = system: ocular tumor (uveal melanoma); assay: Neoadjuvant treatment of uveal melanoma patients, ocular tumor size by ocular ultrasound; format: in vivo, human; settings: vs baseline
# Text: Patients can meet all of the following inclusion criteria: • Patient must be at least 18 years of age. • Patient is able to provide written, informed consent before initiation of any study related-procedures, and is able, in the opinion of the investigator, to comply with all the requirements of the study. • Primary diagnosis of uveal melanoma as clinically determined by the treating investigator planned to undergo enucleation (prior plaque brachytherapy is permitted) • Life expectancy >3 months. • Able to safely swallow orally administered medication. • Patients with a prior history of or clinically stable concurrent malignancy are eligible for enrolment provided the malignancy is clinically insignificant, no treatment is required, and the patient is clinically stable. • Patients with a history of squamous or basal cell carcinoma of the skin or carcinoma in the situ of the cervix may be enrolled. • Patients with prostate cancer with an elevated PSA not requiring treatment may be enrolled. • Patient has Eastern Cooperative Oncology Group (ECOG) performance status 0-1 (Karnofsky 70%). • Patient has adequate organ function at screening: • Absolute neutrophil count ≥1500/mm3 without the use of hematopoietic growth factors • Platelet count ≥75,000/mm3 (must be at least 2 weeks post-platelet transfusion and not receiving platelet-stimulating agents) • Haemoglobin ≥8.0 g/dL (must be at least 2 weeks post-red blood cell transfusion and not receiving erythropoietic-stimulating agents) • Total bilirubin ≤1.5× the upper limit of normal (ULN).
# The presence of any of the following can exclude a patient from being eligible for the study: • Previous treatment with a PKC inhibitor • Have adverse events (AEs) from prior anti-cancer therapy that have not resolved to Grade ≤1 except for alopecia, prior peripheral neuropathy, or anemia. Endocrinopathies resulting from previous immunotherapy are considered part of the medical history and not an AE. • Untreated or symptomatic malignant lesions in the central nervous system (CNS). • Known human immunodeficiency virus (HIV) or acquired immunodeficiency syndrome (AIDS)-related illness. • Active infection requiring therapy (except nail fungus), positive tests for Hepatitis B surface antigen (HBsAg) with detected Hepatitis B virus (HBV) DNA or positive Hepatitis C antibody with detected Hepatitis C virus (HCV) RNA. • Prior gastrectomy or upper bowel removal or any other gastrointestinal disorder or defect e.g., malabsorption disorder such as Crohn's disease or ulcerative colitis, that would interfere with absorption of Compound 1. • Patients who are receiving treatment with medications that cannot be discontinued prior to study entry and that are considered to be any of the following • known to be strong inducers or inhibitors of CYP3A4/5 • known to be substrates of CYP3A4/5, OAT3, OATP1B1, and MATE1/2-K with a narrow therapeutic index • Females who are pregnant or breastfeeding: • Women of childbearing potential must not be considering getting pregnant during the study. • Patients of reproductive potential (male & female) must practice an effective method of contraception during treatment and for 30 days following the last dose of Compound 1. […] If electrolytes are abnormal, they may be corrected, and baseline ECGs should be repeated. • Known to have previously received Compound 1 • Presence of any other condition that may increase the risk associated with study participation or may interfere with the interpretation of study results and, in the opinion of the investigator, would make the patient inappropriate for entry into the study.
# A patient (patient 1) (enrolled in NCT05187884) was treated with Compound 1 (300 mg BID) for 27 days, prior to potential planned interventional procedure comprising enucleation. A 22% ocular tumor reduction in maximal apical height by ocular ultrasound (after about 28 days administration of Compound 1) was observed prior to the planned interventional procedure. […]
# [2] = system: ocular tumor (uveal melanoma); assay: PET scan of metabolic activity of the ocular tumor (FDG avidity, SUV) in treated patients; format: in vivo, human
# Experimental: (§1) A patient (patient 2) (enrolled in NCT02601378) with metastatic disease to liver and peritoneum at the time of diagnosis, and with primary lesion intact (intact ocular tumor) was treated with Compound 1 (300 mg BID).
# A patient (patient 4) (enrolled in NCT05187884) was treated with Compound 1 (300 mg BID) for about 28 days, prior to the planned interventional procedure (e.g., enucleation). A 31% ocular tumor reduction in maximal apical height by ocular ultrasound was observed (after about 28 days administration of Compound 1).
# [3] = system: ocular tumor (uveal melanoma); assay: Clinical outcome of the affected eye in treated uveal melanoma patients; format: in vivo, human
# Experimental: as §1
# A patient (patient 5) (enrolled in NCT05187884) was treated with Compound 1 (300 mg BID) for about 28 days. A 13% ocular tumor reduction in maximal apical height by ocular ultrasound was observed (after about 28 days administration of Compound 1). The patient is continuing on treatment to maximal benefit up to 6 months prior to planned enucleation. The patient was continuing treatment with Compound 1 (300 mg BID) for additional about 3 months (in addition to about 28 days as described above), and a 24% ocular tumor reduction in maximal apical height by ocular ultrasound was observed. […] The patient continues on adjuvant therapy for potentially up to 6 months.
# A patient (patient 6) (enrolled in NCT05187884) was treated with Compound 1 (300 mg BID) for about 56 days, prior to the planned interventional procedure (e.g. enucleation). A 11% ocular tumor reduction in maximal apical height and 23% in Largest Basal Diameter by ocular ultrasound was observed. The patient is continuing on treatment to maximal benefit up to 6 months prior to planned enucleation. The patient continued treatment with Compound 1 (300 mg BID) for about 2 months (in addition to the 56 days as described above), and a 24% ocular tumor reduction in maximal apical height by ocular ultrasound was observed. The patient continued treatment with Compound 1 (300 mg BID) for about 1 month (in addition to about 4 months described above), and a 45% ocular tumor reduction in maximal apical height and 63% reduction in Largest Basal Diameter by ocular ultrasound was observed.
# [4] = system: uveal melanoma cells harboring GNAQ mutations; settings: by targeting PKC/ERK1/2 and PKC/NF-xB pathways; X. Wu et al. 2012; cited from earlier work
# [5] = patient 6, 300 mg BID, about 4 months plus about 1 month
# [6] = patient 6, 300 mg BID, about 56 days
# [7] = patient 7, 300 mg BID, after about 84 days
# [8] = patient 8, 300 mg BID, after about 84 days
# [9] = patient 9, 300 mg BID, after about 56 days
compound,measurement,setting,value
CC1(N)CCN(c2cccnc2NC(=O)c2nc(-c3ncccc3C(F)(F)F)cnc2N)CC1 [Compound 1],ocular tumor reduction in maximal apical height by ocular ultrasound,"[1]; patient 1, 300 mg BID, after about 28 days",22%
same,ocular tumor reduction in maximal apical height by ocular ultrasound,"[1]; patient 3, 300 mg BID, after 28 days",~10%
same,ocular tumor reduction in maximal apical height by ocular ultrasound,"[1]; patient 4, 300 mg BID, after about 28 days",31%
same,ocular tumor reduction in maximal apical height by ocular ultrasound,"[1]; patient 5, 300 mg BID, about 28 days plus additional about 3 months",24%
same,ocular tumor reduction in maximal apical height by ocular ultrasound,"[1]; patient 5, 300 mg BID, after about 28 days",13%
same,ocular tumor reduction in maximal apical height by ocular ultrasound,"[1]; patient 6, 300 mg BID, 56 days plus about 2 months",24%
same,ocular tumor reduction in maximal apical height by ocular ultrasound,[1]; [5],45%
same,reduction in Largest Basal Diameter by ocular ultrasound,[1]; [5],63%
same,ocular tumor reduction in maximal apical height by ocular ultrasound,[1]; [6],11%
same,reduction in Largest Basal Diameter by ocular ultrasound,[1]; [6],23%
same,ocular tumor reduction in maximal apical height by ocular ultrasound,[1]; [7],14.3%
same,reduction in Largest Basal Diameter by ocular ultrasound,[1]; [7],15.2%
same,ocular tumor reduction in maximal apical height by ocular ultrasound,[1]; [8],28.5%
same,reduction in Largest Basal Diameter by ocular ultrasound,[1]; [8],19.4%
same,ocular tumor reduction in maximal apical height by ocular ultrasound,[1]; [9],4.0%
same,reduction in Largest Basal Diameter by ocular ultrasound,[1]; [9],2.1%
same,"reduction in the metabolic activity of the ocular tumor (FDG avidity) by SUV, PET","[2]; patient 2 (metastatic disease, intact ocular tumor), 300 mg BID, after about two weeks",74%
same,"reduction in the metabolic activity of the ocular tumor (FDG avidity) by SUV, PET","[2]; patient 4, 300 mg BID, after about one month",42%
same,patient-reported visual symptoms in affected eye,"[3]; patient 2, 300 mg BID",improvement in visual symptoms in affected eye
same,eye outcome (plaque brachytherapy enabled instead of planned enucleation),"[3]; patient 5, 300 mg BID neoadjuvant",the eye was preserved
same,eye outcome (plaque brachytherapy enabled instead of planned enucleation),"[3]; patient 6, 300 mg BID neoadjuvant",the eye was preserved
CN1CCN(c2nc(C3=C(c4c[nH]c5ccccc45)C(=O)NC3=O)c3ccccc3n2)CC1 [sotrastaurin],inhibition of growth of uveal melanoma cells harboring GNAQ mutations,[4],selectively inhibit the growth
